From patent US11111222B2, “Hydroxyeicosatrienoic acid compounds and their use as therapeutic agents” (THE REGENTS OF THE UNIVERSITY OF MICHIGAN, priority 2016, dated 2021) come the findings set out here.

Data set [1] deals with washed platelets from WT or 12-LOX−/− mice. The data set can be described thus: Platelet aggregation, washed murine platelets (lumi-aggregometer). It counts as cell-based, mouse. Conditions: 10 min. How it is done:
The 12-LOX null C57BL/6 (12-LOX^−/−) mice were generated using homozygous breeding pairs and wild-type (WT) C57BL/6 ([…]) mice were purchased (Jackson Laboratory). […] Mouse blood was diluted with equal volumes of Tyrode's buffer (10 mM HEPES, 11.9 mM sodium bicarbonate, 127.2 mM sodium chloride, 5 mM potassium chloride, 0.4 mM sodium phosphate monobasic, 1 mM magnesium chloride, and 5 mM D-glucose) and centrifuged at 200×g. Platelet-rich-plasma (PRP) was transferred to a tube containing 10× acid citrate dextrose solution (ACD) (2.5% sodium citrate, 1.5% citric acid, and 2% D-glucose) and apyrase (0.02 U/mL), and centrifuged at 2000×g. Platelet count was adjusted to 3×10^8 platelets/mL with Tyrode's buffer for all studies.
A lumi-aggregometer (Chrono-log model 700D) was used to measure platelet aggregation under stirring conditions (1100 rpm) at 37° C. Prior to agonist stimulation platelets were incubated with a preselected PUFA or oxylipin for 10 minutes.

The nature of data set [2]: Tail bleeding assay. It counts as in vivo, mouse. As to conditions: heparin-treated mice; data not shown. As to the method:
Mice were anesthetized with ketamine/xyzaline and placed on a heating pad in prone position, the tip of the tail (5 mm) was excised with a sterile scalpel, and the tails were immediately immersed into isotonic saline solution (0.9%) warmed to 37° C. Bleeding time was assessed until cessation of blood flow from the tail for 1 minute.

For data set [3], the system named is VASP (serine 157). The experiment in a line: VASP phosphorylation in human platelets. As to conditions: compound IIc, 1 min; concentrations not given. The class given is cell-based. How it is done: Washed platelets were treated with PUFA or PUFA metabolite (12(S)-HETrE or compound IIc) for one minute, then directly lysed in 5× Laemmeli sample buffer (1.5 M Tris-HCl, pH 6.8, glycerol, 5% β-mercaptoethanol, 10% sodium dodecyl sulfate (SDS), and 1% bromophenol blue). The samples were boiled for five minutes and then run on a 10% SDS-PAGE gel. The levels of total and phospho-VASP (serine 157) were quantified by Western Blot using an Odyssey imaging system (LI-CoR).

The mark [4] stands for this setting: 12-LOX−/− mouse platelets, 25 μM 12-LOX oxylipin, EC80 PAR4-AP (200 μM) or collagen (2 or 5 μg/mL), vs vehicle.
Setting [5] is: WT mouse platelets, 25 μM 12-LOX oxylipin, EC80 PAR4-AP (100 μM) or collagen (5 μg/mL), vs vehicle.
The mark [6] stands for this setting: 12-LOX−/− mouse platelets, 10 μM PUFA, EC80 PAR4-AP (200 μM) or collagen (2 or 5 μg/mL), vs vehicle.
[7] abbreviates: WT mouse platelets, 10 μM PUFA, EC80 PAR4-AP (100 μM) or collagen (5 μg/mL), vs DMSO.

As for `CCCCC/C=C\CC(O)/C=C/C=C\C/C=C\CCCC(=O)O` (stereo not shown) [Compound 12-HETE, 12-hydroxy-5Z,8Z,10E,14Z-eicosatetraenoic], the platelet aggregation entry in data set [1] (setting [4]) and in data set [1] (setting [5]) was “no decrease in collagen- or PAR4-AP-mediated platelet aggregation” in each case.

With heparin, the bleeding time result in data set [2] is given as “severe bleeding diathesis”.

On to `CCCCC/C=C\C/C=C\C/C=C\CCCCCSc1n[nH]c(=O)[nH]1` [Compound IIc, 5-(((6Z,9Z,12Z)-octadeca-6,9,12-trien-1-yl)thio)-2,4-dihydro-3H-1,2,4-triazol-3-one], for which the “VASP phosphorylation (S157)” value in data set [3] is recorded as “dose-dependent phosphorylation of VASP”.

As to `CCCCC/C=C\C/C=C\C/C=C\C/C=C\CCCC(=O)O` [AA], the platelet aggregation entry in data set [1] (setting [6]) and in data set [1] (setting [7]) was “no inhibitory effect” in each case.

Take `CCCCC/C=C\C/C=C\CCCCCCCC(=O)O` [LA, linoleic acid]: the platelet aggregation entry in data set [1] (setting [6]) and in data set [1] (setting [7]) was “no inhibitory effect” each time.

Regarding `CC/C=C\C/C=C\CC(O)/C=C/C=C\C/C=C\CCCC(=O)O` (stereo not shown) [Compound 12-HEPE, 12-hydroxy-5Z, 8Z, 10E, 14Z, 17Z-eicosapentaenoic acid], the platelet aggregation result in data set [1] (setting [4]) and in data set [1] (setting [5]) was “did not inhibit collagen- or PAR4-AP-induced aggregation” in each case.
